From PubChem BioAssay (NCI)
Several values for one entry are separate records, joined by “and”; a condition that tells them apart may be missing. Identical values can stand only once.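 Cells were grown in 96-well plates and exposed to each compound for 48 hours at five concentrations; endpoints were interpolated linearly between bracketing concentrations, or set to the highest concentration if not reached. GI50 marks 50% less growth. TGI: concentration producing complete growth inhibition.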

Tests used:
Assay in all cases: NCI anticancer screen, dose series, 48 h
A549 NSCLC = system: A549 NSCLC
MDA-N = system: MDA-N
NCI-H23 lung = system: NCI-H23 lung
OVCAR-5 ovarian = system: OVCAR-5 ovarian
SF-295 CNS = system: SF-295 CNS
SK-MEL-5 melanoma = system: SK-MEL-5 melanoma
SK-OV-3 ovarian = system: SK-OV-3 ovarian
SN12C renal = system: SN12C renal
TK-10 renal = system: TK-10 renal
UACC-257 melanoma = system: UACC-257 melanoma

NC(N)=NS(=O)(=O)c1ccc(NC(=O)c2ccc3nc4ccccc4c(Nc4ccc(S(N)(=O)=O)cc4)c3c2)cc1
TGI (A549 NSCLC): > 100 µM
TGI (MDA-N): > 100 µM
TGI (NCI-H23 lung): > 100 µM
TGI (OVCAR-5 ovarian): > 100 µM
TGI (SF-295 CNS): > 100 µM
TGI (SK-MEL-5 melanoma): > 100 µM
TGI (SK-OV-3 ovarian): > 100 µM
TGI (SN12C renal): > 100 µM
TGI (TK-10 renal): > 100 µM
TGI (UACC-257 melanoma): > 100 µM

Cn1c2ccccc2c2c3c(c4c5ccccc5n(C)c4c21)C(=O)c1ccccc1C3=O
TGI (A549 NSCLC): > 100 µM
TGI (MDA-N): > 100 µM
TGI (NCI-H23 lung): 63.5 µM
TGI (OVCAR-5 ovarian): > 100 µM
TGI (SF-295 CNS): > 100 µM
TGI (SK-MEL-5 melanoma): > 100 µM
TGI (SK-OV-3 ovarian): > 100 µM
TGI (SN12C renal): > 100 µM
TGI (TK-10 renal): 81.3 µM
TGI (UACC-257 melanoma): > 100 µM

CCO/C(O)=C(/C(=N)N1CCCC1)C(=O)Nc1cccc(C(F)(F)F)c1
TGI (A549 NSCLC): > 100 µM
TGI (MDA-N): > 100 µM
TGI (NCI-H23 lung): > 100 µM
TGI (OVCAR-5 ovarian): > 100 µM
TGI (SF-295 CNS): > 100 µM
TGI (SK-OV-3 ovarian): > 100 µM
TGI (SN12C renal): > 100 µM
TGI (TK-10 renal): > 100 µM
TGI (UACC-257 melanoma): > 100 µM

O=C(NCc1ccc(Cl)cc1)c1cc2sccc2nc1C(F)(F)F
TGI (A549 NSCLC): > 100 µM
TGI (MDA-N): > 100 µM
TGI (NCI-H23 lung): > 100 µM
TGI (OVCAR-5 ovarian): > 100 µM
TGI (SF-295 CNS): > 100 µM
TGI (SK-MEL-5 melanoma): > 100 µM
TGI (SK-OV-3 ovarian): > 100 µM
TGI (SN12C renal): > 100 µM
TGI (TK-10 renal): > 100 µM
TGI (UACC-257 melanoma): > 100 µM

COc1cc(C2S/C(=C/c3ccccc3)C(=O)N2c2ccc(Cl)c(Cl)c2)cc(OC)c1OC (stereo not drawn)
TGI (A549 NSCLC): > 100 µM
TGI (MDA-N): > 84.9 µM
TGI (NCI-H23 lung): > 100 µM
TGI (OVCAR-5 ovarian): > 100 µM
TGI (SF-295 CNS): > 100 µM
TGI (SK-MEL-5 melanoma): > 100 µM
TGI (SK-OV-3 ovarian): > 100 µM
TGI (SN12C renal): > 100 µM
TGI (TK-10 renal): > 100 µM
TGI (UACC-257 melanoma): > 100 µM

C/C(O)=C/c1nc2ccc([N+](=O)[O-])cc2nc1/C=C(/C)O
TGI (A549 NSCLC): > 100 µM
TGI (MDA-N): > 100 µM
TGI (NCI-H23 lung): > 100 µM
TGI (OVCAR-5 ovarian): > 100 µM
TGI (SF-295 CNS): > 100 µM
TGI (SK-MEL-5 melanoma): > 100 µM
TGI (SK-OV-3 ovarian): > 100 µM
TGI (SN12C renal): > 100 µM
TGI (TK-10 renal): > 100 µM
TGI (UACC-257 melanoma): 72.7 µM

Cc1cc(=O)oc2cc(O)ccc12
TGI (A549 NSCLC): > 100 µM
TGI (MDA-N): > 100 µM
TGI (NCI-H23 lung): > 100 µM
TGI (OVCAR-5 ovarian): > 100 µM
TGI (SF-295 CNS): > 100 µM
TGI (SK-MEL-5 melanoma): > 100 µM
TGI (SK-OV-3 ovarian): > 100 µM
TGI (SN12C renal): > 100 µM
TGI (TK-10 renal): > 100 µM
TGI (UACC-257 melanoma): > 100 µM

NNc1nncn1N
TGI (A549 NSCLC): > 100 µM
TGI (NCI-H23 lung): > 79.5 µM
TGI (OVCAR-5 ovarian): > 100 µM
TGI (SF-295 CNS): > 100 µM
TGI (SK-MEL-5 melanoma): > 100 µM
TGI (SK-OV-3 ovarian): > 100 µM
TGI (SN12C renal): > 100 µM
TGI (TK-10 renal): > 100 µM
TGI (UACC-257 melanoma): > 100 µM

Clc1ccc(N=c2oc3ccccc3cc2-c2nc3ccccc3[nH]2)c(Cl)c1
TGI (MDA-N): > 100 µM
TGI (NCI-H23 lung): > 100 µM
TGI (OVCAR-5 ovarian): > 100 µM
TGI (SF-295 CNS): > 100 µM
TGI (SK-OV-3 ovarian): > 100 µM
TGI (TK-10 renal): 69.9 µM
TGI (UACC-257 melanoma): > 100 µM

CSc1c(C#N)c2n(c3ccccc13)c1ccccc1[n+]2C
TGI (A549 NSCLC): 81.8 µM
TGI (MDA-N): 63.5 µM
TGI (NCI-H23 lung): 70.7 µM
TGI (OVCAR-5 ovarian): > 100 µM
TGI (SF-295 CNS): > 100 µM
TGI (SK-MEL-5 melanoma): 26.7 µM
TGI (SN12C renal): 53.1 µM
TGI (TK-10 renal): 93.6 µM
TGI (UACC-257 melanoma): 67.8 µM

NNC(=S)N1CCN(C(=S)NN)CC1
TGI (A549 NSCLC): > 100 µM
TGI (MDA-N): > 100 µM
TGI (NCI-H23 lung): > 100 µM
TGI (OVCAR-5 ovarian): > 100 µM
TGI (SF-295 CNS): > 100 µM
TGI (SK-MEL-5 melanoma): > 100 µM
TGI (SK-OV-3 ovarian): > 100 µM
TGI (SN12C renal): > 100 µM
TGI (UACC-257 melanoma): > 100 µM

Cc1ccc(S(=O)(=O)c2c(O)c3ccccc3n(C)c2=O)cc1
TGI (A549 NSCLC): > 100 µM
TGI (MDA-N): > 100 µM
TGI (NCI-H23 lung): > 100 µM
TGI (OVCAR-5 ovarian): > 100 µM
TGI (SF-295 CNS): > 100 µM
TGI (SK-MEL-5 melanoma): > 100 µM
TGI (SK-OV-3 ovarian): > 100 µM
TGI (SN12C renal): > 100 µM
TGI (UACC-257 melanoma): > 100 µM

CN(Cc1cnc2nc(N)nc(N)c2n1)c1ccc(C(=O)NC(CCC(=O)NC(P(=O)(O)O)P(=O)(O)O)C(=O)O)cc1 (stereo not drawn)
TGI (A549 NSCLC): > 100 µM
TGI (MDA-N): > 100 µM
TGI (NCI-H23 lung): > 100 µM
TGI (OVCAR-5 ovarian): > 100 µM
TGI (SF-295 CNS): > 100 µM
TGI (SK-MEL-5 melanoma): > 100 µM
TGI (SN12C renal): > 100 µM
TGI (TK-10 renal): > 100 µM
TGI (UACC-257 melanoma): > 100 µM

COc1cc(S(=O)(=O)Nc2ccc(C3=NNC(c4ccccc4)C3)cc2)ccc1F (stereo not drawn)
GI50 (A549 NSCLC): 53.9 µM
TGI (A549 NSCLC): > 100 µM
GI50 (NCI-H23 lung): 34.6 µM
TGI (NCI-H23 lung): > 100 µM
GI50 (OVCAR-5 ovarian): 66.8 µM
TGI (OVCAR-5 ovarian): > 100 µM
GI50 (SF-295 CNS): 28.5 µM
TGI (SF-295 CNS): > 100 µM
GI50 (SK-MEL-5 melanoma): 13.9 µM
TGI (SK-MEL-5 melanoma): 31.6 µM
GI50 (SK-OV-3 ovarian): > 100 µM
TGI (SK-OV-3 ovarian): > 100 µM
GI50 (TK-10 renal): 13.9 µM
TGI (TK-10 renal): 54.7 µM
GI50 (UACC-257 melanoma): 29.3 µM
TGI (UACC-257 melanoma): > 100 µM

Nc1cc(N2CCCC2)nc(=O)n1Cc1ccccc1
TGI (A549 NSCLC): > 100 µM
TGI (NCI-H23 lung): > 100 µM
TGI (OVCAR-5 ovarian): > 100 µM
TGI (SF-295 CNS): > 100 µM
TGI (SK-MEL-5 melanoma): > 100 µM
TGI (SN12C renal): > 100 µM
TGI (TK-10 renal): > 100 µM
TGI (UACC-257 melanoma): > 100 µM

O=C1/C(=C2\Sc3c(ccc(Cl)c3Cl)C2=O)Sc2c1ccc(Cl)c2Cl
TGI (A549 NSCLC): > 100 µM
TGI (MDA-N): > 100 µM
TGI (NCI-H23 lung): > 100 µM
TGI (OVCAR-5 ovarian): > 100 µM
TGI (SF-295 CNS): > 100 µM
TGI (SK-MEL-5 melanoma): > 100 µM
TGI (SN12C renal): > 100 µM
TGI (TK-10 renal): > 100 µM
TGI (UACC-257 melanoma): > 100 µM

CC(=O)Oc1ccc(C2COc3cc(OC(C)=O)c(OC(C)=O)cc3C2)cc1 (stereo not drawn)
TGI (A549 NSCLC): 57.3 µM
TGI (NCI-H23 lung): 37.7 µM
TGI (OVCAR-5 ovarian): > 97.1 µM
TGI (SF-295 CNS): 58.5 µM
TGI (SK-MEL-5 melanoma): 6.63 µM
TGI (SK-OV-3 ovarian): 38.7 µM
TGI (SN12C renal): 52 µM
TGI (UACC-257 melanoma): 34.9 µM

Oc1ccc(CCc2cc(O)cc(O)c2)cc1
TGI (A549 NSCLC): > 100 µM
TGI (NCI-H23 lung): > 100 µM
TGI (OVCAR-5 ovarian): > 100 µM
TGI (SF-295 CNS): > 100 µM
TGI (SK-MEL-5 melanoma): > 100 µM
TGI (SK-OV-3 ovarian): > 100 µM
TGI (SN12C renal): > 100 µM
TGI (TK-10 renal): > 100 µM
TGI (UACC-257 melanoma): > 100 µM

CC(=Nc1ccncc1)C(C)=Nc1ccncc1
TGI (A549 NSCLC): > 100 µM
TGI (NCI-H23 lung): 32.6 µM
TGI (OVCAR-5 ovarian): 31.9 µM
TGI (SF-295 CNS): > 100 µM
TGI (SK-MEL-5 melanoma): 47.1 µM
TGI (SK-OV-3 ovarian): > 100 µM
TGI (SN12C renal): 30 µM
TGI (TK-10 renal): > 100 µM
TGI (UACC-257 melanoma): > 100 µM

Cn1cnc2c(sc3nc4ccccc4n32)c1=N
TGI (A549 NSCLC): > 100 µM
TGI (MDA-N): > 100 µM
TGI (NCI-H23 lung): > 100 µM
TGI (OVCAR-5 ovarian): > 100 µM
TGI (SF-295 CNS): > 100 µM
TGI (SK-MEL-5 melanoma): > 100 µM
TGI (SK-OV-3 ovarian): > 100 µM
TGI (TK-10 renal): > 100 µM
TGI (UACC-257 melanoma): > 100 µM

COc1ccc2c(c1)/c(=C/c1ccc(N(C)C)cc1)c1cc(-c3ccccc3)[n+](C)n12
TGI (A549 NSCLC): 5.07 µM
TGI (MDA-N): 1.48 µM
TGI (OVCAR-5 ovarian): 3.17 µM
TGI (SK-MEL-5 melanoma): 1.06 µM
TGI (SK-OV-3 ovarian): 1.98 µM
TGI (SN12C renal): 1.24 µM
GI50 (TK-10 renal): 0.711 µM
TGI (TK-10 renal): 5.32 µM and 6.29 µM
TGI (UACC-257 melanoma): 2.19 µM
